Test results published in US20250320213A1, “Nitrogen-Containing Heterocyclic Compounds” (Pfizer Inc., priority 2024, published 2025).

Columns and labels:
[1] = test system: CCL17 secretion in peripheral human whole blood; assay: Human Whole Blood (HWB) CCL17 TR-FRET Assay (IL-13 stimulated CCL17 secretion); assay type: cell-based; conditions: Homo sapiens, 48 h, human whole blood
Method in brief: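 Compounds are titrated (11 points, 3-fold, duplicate) into fresh heparinized human whole blood and held 2 h at 37 °C before IL-13 challenge (10 ng/mL final). After 48 h at 37 °C, serum CCL17 is measured by TR-FRET sandwich assay and IC50 values are calculated.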

STAT6 = target: T1, STAT6 (Homo sapiens, UniProt P42226); assay: STAT6 Reporter Luciferase Assay (IL-13 stimulated HaCaT keratinocyte NanoLuc reporter cells); assay type: cell-based; conditions: IL-13 stimulated HaCaT STAT6 NanoLuc reporter cells; read-out: Reporter EC50
T1 construct: stably transfected HaCaT keratinocyte cell line, which expresses NanoLuc luciferase reporter gene under the transcriptional control of the STAT6 responsive promoter; endogenous in cells; host or cells: HaCaT keratinocyte reporter cell line (stably transfected with a NanoLuc reporter)
T1 sequence (P42226 1-847): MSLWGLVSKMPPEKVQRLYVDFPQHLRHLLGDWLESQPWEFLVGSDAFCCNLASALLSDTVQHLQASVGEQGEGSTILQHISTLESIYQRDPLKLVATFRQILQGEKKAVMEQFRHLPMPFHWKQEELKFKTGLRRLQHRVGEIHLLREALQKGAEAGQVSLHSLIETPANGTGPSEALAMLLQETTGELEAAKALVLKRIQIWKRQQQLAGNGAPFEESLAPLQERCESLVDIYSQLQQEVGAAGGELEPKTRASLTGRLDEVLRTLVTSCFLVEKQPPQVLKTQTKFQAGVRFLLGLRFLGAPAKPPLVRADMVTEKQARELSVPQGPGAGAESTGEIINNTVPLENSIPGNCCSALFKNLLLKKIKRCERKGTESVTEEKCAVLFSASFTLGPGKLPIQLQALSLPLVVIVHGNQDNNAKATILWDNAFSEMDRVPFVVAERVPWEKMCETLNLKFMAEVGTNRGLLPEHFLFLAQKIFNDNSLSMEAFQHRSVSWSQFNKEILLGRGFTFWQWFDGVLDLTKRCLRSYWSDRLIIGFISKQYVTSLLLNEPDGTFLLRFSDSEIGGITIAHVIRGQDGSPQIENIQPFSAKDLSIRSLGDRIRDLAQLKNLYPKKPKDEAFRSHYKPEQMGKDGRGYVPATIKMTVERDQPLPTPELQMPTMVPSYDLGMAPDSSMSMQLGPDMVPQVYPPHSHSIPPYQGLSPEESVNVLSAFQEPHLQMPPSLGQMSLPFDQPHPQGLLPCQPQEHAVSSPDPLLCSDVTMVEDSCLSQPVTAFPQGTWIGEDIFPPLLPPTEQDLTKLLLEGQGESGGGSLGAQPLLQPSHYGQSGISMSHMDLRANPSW
Method in brief: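 HaCaT cells stably carrying a NanoLuc reporter driven by the STAT6-responsive IL-13Ra2 promoter were preincubated with compounds for 2 h at 37 °C in 2% FBS medium. Cells were then stimulated with 0.12 nM IL-13 for 4 h, and luminescence was read after Nano-Glo substrate. Compounds ran as 11-point 4-fold dilutions in duplicate.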

Row | IC50 ([1]; 10 ng/mL IL13, 48 hours) [nM] | EC50 (STAT6) [nM] | IC50 ([1]; IL-13 10 ng/mL) [nM] | SMILES
1 | 4 | 1 |  | COCC1(N)CCN(C(=O)Nc2ccc(CNC(=O)c3nn(C(C)C)c4c3CN(c3ccc(C(=O)N(C)C)cc3)C[C@@H]4C)cc2)CC1 [Example 638, (S)-N-(4-(4-amino-4-(methoxymethyl)piperidine-1-carboxamido)benzyl)-5-(4-(dimethylcarbamoyl)phenyl)-1-isopropyl-7-methyl-4,5,6,7-tetrahydro-1H-pyrazolo[4,3-c]pyridine-3-carboxamide]
2 | 8 | 1 |  | COCC1(N)CCN(C(=O)Nc2ccc(CNC(=O)c3nn(C(C)C)c4c3CN(c3ccc(C(=O)N(C)C)cc3)C[C@@H]4C)cc2F)CC1 [Example 639, (S)-N-(4-(4-amino-4-(methoxymethyl)piperidine-1-carboxamido)-3-fluorobenzyl)-5-(4-(dimethylcarbamoyl)phenyl)-1-isopropyl-7-methyl-4,5,6,7-tetrahydro-1H-pyrazolo[4,3-c]pyridine-3-carboxamide]
3 | 24 | 1 |  | CC(C)n1nc(C(=O)NCc2ccc(NC(=O)N3CCN(C)CC3)cc2)c2c1[C@@H](C)CN(c1ccc(-c3ncnn3C3CC3)cn1)C2 [Example 649, (S)-5-(5-(1-cyclopropyl-1H-1,2,4-triazol-5-yl)pyridin-2-yl)-1-isopropyl-7-methyl-N-(4-(4-methylpiperazine-1-carboxamido)benzyl)-4,5,6,7-tetrahydro-1H-pyrazolo[4,3-c]pyridine-3-carboxamide]
4 | 27 | 4 |  | CC(C)n1nc(C(=O)NCc2ccc(NC(=O)N3CCNCC3)nc2)c2c1[C@@H](C)CN(c1ccc(C(=O)N(C)C)cc1)C2 [Example 699, (S)-5-(4-(dimethylcarbamoyl)phenyl)-1-isopropyl-7-methyl-N-((6-(piperazine-1-carboxamido)pyridin-3-yl)methyl)-4,5,6,7-tetrahydro-1H-pyrazolo[4,3-c]pyridine-3-carboxamide]
5 | 22 | 5 |  | CC(C)n1nc(C(=O)NCc2ccc(NC(=O)N3CCNCC3)cn2)c2c1[C@@H](C)CN(c1ccc(C(=O)N(C)C)cc1)C2 [Example 700, (S)-5-(4-(dimethylcarbamoyl)phenyl)-1-isopropyl-7-methyl-N-((5-(piperazine-1-carboxamido)pyridin-2-yl)methyl)-4,5,6,7-tetrahydro-1H-pyrazolo[4,3-c]pyridine-3-carboxamide]
6 |  | 27 | 191 | CC(C)n1nc(C(=O)NCc2ccc(NC(=O)N(C)C)cc2)c2c1[C@@H](C)CN(c1ccc(C(=O)N3CCN(C)CC3)cc1)C2 [Example 706, (S)-N-(4-(3,3-dimethylureido)benzyl)-1-isopropyl-7-methyl-5-(4-(4-methylpiperazine-1-carbonyl)phenyl)-4,5,6,7-tetrahydro-1H-pyrazolo[4,3-c]pyridine-3-carboxamide]
7 |  | 1 | 8 | COCCC1(N)CCN(C(=O)Nc2ccc(CNC(=O)c3nn(C(C)C)c4c3CN(c3ccc(C(=O)N(C)C)cc3)C[C@@H]4C)cc2)CC1 [Example 708, (S)-N-(4-(4-amino-4-(2-methoxyethyl)piperidine-1-carboxamido)benzyl)-5-(4-(dimethylcarbamoyl)phenyl)-1-isopropyl-7-methyl-4,5,6,7-tetrahydro-1H-pyrazolo[4,3-c]pyridine-3-carboxamide]
8 |  | 0.5 | 18 | CC(C)n1nc(C(=O)NCc2ccc(NC(=O)N3CCN(C)CC3)c(F)c2)c2c1[C@@H](C)CN(c1ccc(C(=O)N3Cc4cccnc4C3)cc1)C2 [Example 711, (S)-5-(4-(6,7-dihydro-5H-pyrrolo[3,4-b]pyridine-6-carbonyl)phenyl)-N-(3-fluoro-4-(4-methylpiperazine-1-carboxamido)benzyl)-1-isopropyl-7-methyl-4,5,6,7-tetrahydro-1H-pyrazolo[4,3-c]pyridine-3-carboxamide]
9 |  | 3 | 64 | CC(C)n1nc(C(=O)NCc2ccc(NC(=O)N3CCN(C)CC3)cc2Cl)c2c1[C@@H](C)CN(c1ccc(C(=O)N(C)C)cc1)C2 [Example 712, (S)-N-(2-chloro-4-(4-methylpiperazine-1-carboxamido)benzyl)-5-(4-(dimethylcarbamoyl)phenyl)-1-isopropyl-7-methyl-4,5,6,7-tetrahydro-1H-pyrazolo[4,3-c]pyridine-3-carboxamide]
10 |  | 5 | 68 | CC(C)n1nc(C(=O)NCc2ccc(NC(=O)N3CCN(C)CC3)c(F)c2)c2c1[C@@H](C)CN(c1ccc(-n3ccccc3=O)cc1)C2 [Example 715, (S)-N-(3-fluoro-4-(4-methylpiperazine-1-carboxamido)benzyl)-1-isopropyl-7-methyl-5-(4-(2-oxopyridin-1(2H)-yl)phenyl)-4,5,6,7-tetrahydro-1H-pyrazolo[4,3-c]pyridine-3-carboxamide]
11 |  | 3 | 25 | CCn1nc(C(=O)NCc2ccc(NC(=O)N3CC(NC)C3)c(F)c2)c2c1[C@@H](C)CN(c1ccc(C(=O)N(C)C)cc1)C2 [Example 716, (S)-5-(4-(dimethylcarbamoyl)phenyl)-1-ethyl-N-(3-fluoro-4-(3-(methylamino)azetidine-1-carboxamido)benzyl)-7-methyl-4,5,6,7-tetrahydro-1H-pyrazolo[4,3-c]pyridine-3-carboxamide]
12 |  | 3 | 29 | CC(C)n1nc(C(=O)NCc2ccc(NC(=O)N3CCN(C)CC3)c(Cl)c2)c2c1[C@@H](C)CN(c1ccc(C(=O)N(C)C)cc1)C2 [Example 717, (S)-N-(3-chloro-4-(4-methylpiperazine-1-carboxamido)benzyl)-5-(4-(dimethylcarbamoyl)phenyl)-1-isopropyl-7-methyl-4,5,6,7-tetrahydro-1H-pyrazolo[4,3-c]pyridine-3-carboxamide]
13 |  | 1 | 18 | CC(C)n1nc(C(=O)NCc2ccc(NC(=O)N3CCN(C)CC3)cc2F)c2c1[C@@H](C)CN(c1ccc(C(=O)N(C)C)cc1)C2 [Example 718, (S)-5-(4-(dimethylcarbamoyl)phenyl)-N-(2-fluoro-4-(4-methylpiperazine-1-carboxamido)benzyl)-1-isopropyl-7-methyl-4,5,6,7-tetrahydro-1H-pyrazolo[4,3-c]pyridine-3-carboxamide]
14 |  | 1000 | 3690 | CC(C)n1nc(C(=O)NCc2ccc(C(N)=O)cc2)c2c1[C@@H](C)CN(c1ncc(-c3nccn3C)cn1)C2 [Example 719, (S)-N-(4-carbamoylbenzyl)-1-isopropyl-7-methyl-5-(5-(1-methyl-1H-imidazol-2-yl)pyrimidin-2-yl)-4,5,6,7-tetrahydro-1H-pyrazolo[4,3-c]pyridine-3-carboxamide]
15 |  | 12 | 102 | CC(C)n1nc(C(=O)NCc2ccc(NC(=O)C3CCN(C)CC3)c(F)c2)c2c1[C@@H](C)CN(c1ccc(C(=O)N(C)C)cc1)C2 [Example 721, (S)-5-(4-(dimethylcarbamoyl)phenyl)-N-(3-fluoro-4-(1-methylpiperidine-4-carboxamido)benzyl)-1-isopropyl-7-methyl-4,5,6,7-tetrahydro-1H-pyrazolo[4,3-c]pyridine-3-carboxamide]
16 |  | 8 | 40 | CN[C@@H]1CCN(C(=O)Nc2ccc(CNC(=O)c3nn(C(C)C)c4c3CN(c3ccc(C(=O)N(C)C)cc3)C[C@@H]4C)cc2)C1 [Example 722, (S)-5-(4-(dimethylcarbamoyl)phenyl)-1-isopropyl-7-methyl-N-(4-((R)-3-(methylamino)pyrrolidine-1-carboxamido)benzyl)-4,5,6,7-tetrahydro-1H-pyrazolo[4,3-c]pyridine-3-carboxamide]
17 |  | 128 | 665 | Cc1coc(-c2ccc(CNC(=O)c3nn(C(C)C)c4c3CN(c3ccc(C(=O)N(C)C)cc3)C[C@@H]4C)cc2)n1 [Example 723, (S)-5-(4-(dimethylcarbamoyl)phenyl)-1-isopropyl-7-methyl-N-(4-(4-methyloxazol-2-yl)benzyl)-4,5,6,7-tetrahydro-1H-pyrazolo[4,3-c]pyridine-3-carboxamide]
